# Data taken from patent US9770469B2, “Methods of reprogramming renal cells” (Tel HaShomer Medical Research Infrastructure and Services …, priority 2009, dated 2017).
# Legend:
# [1] = test system: human adult kidney cells; assay: qRT-PCR gene expression after TSA/AzaC or VPA treatment; format: cell-based
# From the text: (§1) Tissue Samples: human tissues samples were collected according to the Helsinki requirements. Human fetal kidney cells (HFK) were collected from elective abortions at fetal gestational age ranged from 15 to 19 weeks. Normal human adult kidney cell (HAK) samples were retrieved from borders of RCC tumors from partial nephrectomy patients. Establishment of Primary Cultures from Human Kidney Tissues: Collected tissues were minced in HBSS, soaked in IMDM Medium (Invitrogen) supplemented with 0.1% collagenase II (Invitrogen). The digested tissue was then gradually forced through a 100 μm, 70 μm and 50 μm cell strainer to achieve a single cell suspension, and cultured in growth medium supplemented with FBS 10%, L-Glutamin 1%, Pen-Strep 1% and growth factors: 50 ng/ml of bFGF, 50 ng/ml of EGF and 5 ng/ml of SCF (R&D systems). Cell Treatment: […] Otherwise, cells were treated for 24 hours with growth medium supplemented with the combination of 75 μM TSA (Sigma) and 250 μM 5-AZA (Sigma) or with 100% Ethanol and Acetic Acid (Acetic Acid: H2O 1:1) for control sample. […] 24 hours prior to harvesting VPA at a concentration of 4 mM was added to the cell culture. Quantitative Reverse Transcription-PCR: Total RNA from kidney tissue cultured cells was isolated using the TRIZOL reagent (Invitrogen) according to the manufacturer's protocols. cDNA synthesis was carried out using Verso kit (Thermo scientific) with Random primers. Quantitative RT PCR was performed using an ABI7900HT sequence detection system (Perkin-Elmer/Applied Biosystems) in the presence of SYBR green (SYBR green PCR kit; Qiagen). Each analysis reaction was performed in duplicates or triplicates. GapDH was used as an endogenous control throughout all experimental analyses. Analysis was performed using the −ΔΔCt method, which determines fold changes in gene expression relative to a comparator sample.
# [2] = test system: human fetal kidney cells; assay: as above; format: cell-based
# From the text: as §1
# [3] = test system: HAK cells; assay: Culture passage with transient or constant VPA (qRT-PCR, morphology); format: cell-based, human; settings: for cell morphology: culture passage
# Procedure: Quantitative Reverse Transcription-PCR: Total RNA from kidney tissue cultured cells was isolated using the TRIZOL reagent (Invitrogen) according to the manufacturer's protocols. cDNA synthesis was carried out using Verso kit (Thermo scientific) with Random primers. Quantitative RT PCR was performed using an ABI7900HT sequence detection system (Perkin-Elmer/Applied Biosystems) in the presence of SYBR green (SYBR green PCR kit; Qiagen). Each analysis reaction was performed in duplicates or triplicates. GapDH was used as an endogenous control throughout all experimental analyses. Analysis was performed using the −ΔΔCt method, which determines fold changes in gene expression relative to a comparator sample. Maintaining re-induction of Six2/Osr1 in cultured human kidney cells is potentially important if such cells were to be propagated in vitro for the purpose of cell therapy. The present inventors therefore determined whether Six2 and Osr1 are maintained upon tissue culture passage of adult cells. Two treatment protocols were employed; the first, 24-hour exposure to 4 mM VPA and the second constant exposure to VPA.
# [4] = HAK cells, 24 h, TSA/AzaC or VPA 1-4 mM, vs untreated control
# [5] = HAK cells, 24 h, TSA/AzaC or all VPA concentrations (1, 2, 4 mM)
# [6] = HFK cells, 24 h, TSA/AzaC or VPA
# [7] = HFK cells, 24 h, TSA/AzaC or VPA (lesser extent than Six2)
# [8] = P0 cells, transient 24-hour exposure to 4 mM VPA
# [9] = later passages, transient 24-hour exposure to 4 mM VPA
compound,measurement,setting,value
"CCCC(CCC)C(=O)O [VPA, valproic acid]",Six2 mRNA reinduction,"[1]; HAK cells, 24 h, TSA 75 μM + 5-AZA 250 μM, or VPA 1, 2, 4 mM (dose-dependent), vs untreated control",five-fold
same,Vimentin mRNA expression change,"[1]; HAK cells, 24 h, TSA/AzaC or VPA",mostly unchanged
same,Osr1 mRNA expression change (re-activation),[1]; [4],upregulated in a dose-dependent manner
same,Pax2 mRNA expression change (re-activation),[1]; [4],mildly elevated
same,Sall1 mRNA expression change (re-activation),[1]; [4],upregulated in a dose-dependent manner
same,Wt1 mRNA expression change (re-activation),[1]; [4],reduced
same,Klf4 mRNA expression change,[1]; [5],significantly up-regulated
same,Nanog mRNA expression change,[1]; [5],significantly up-regulated
same,E-cadherin mRNA expression change,"[1]; HAK cells, 24 h, TSA/AzaC, or VPA (effect at 2 mM, 4 mM)",mildly elevated
same,Oct4 mRNA expression change,"[1]; HAK cells, 24 h treatment",remained unchanged
same,Wnt4 mRNA levels,[1]; VPA-treated adult kidney cells,strong up-regulation
same,β-catenin mRNA levels,[1]; VPA-treated adult kidney cells,elevation
same,Klf4 mRNA increase,"[2]; HFK cells, 24 h, 4 mM VPA",two-five
same,Nanog mRNA increase,"[2]; HFK cells, 24 h, 4 mM VPA",two-five
same,Oct4 mRNA increase,"[2]; HFK cells, 24 h, 4 mM VPA",two-five
same,E-cadherin mRNA expression change,[2]; [6],significantly elevated
same,Pax2 mRNA expression change,[2]; [6],mild elevation
same,Wt1 mRNA expression change,[2]; [6],reduction
same,Osr1 mRNA expression change,[2]; [7],dose-dependent activation
same,Sall1 mRNA expression change,[2]; [7],dose-dependent activation
same,Six2 mRNA induction,"[2]; HFK cells, 24 h VPA, dose-dependent",four-fold
same,Wnt4 mRNA levels,[2]; VPA-treated fetal kidney cells,strong up-regulation
same,β-catenin mRNA levels,[2]; VPA-treated fetal kidney cells,elevation
same,Osr1 gene levels,[3]; [8],re-induced
same,Six2 gene levels,[3]; [8],re-induced
same,Osr1 gene levels upon culture passage,"[3]; constant VPA exposure, P1-P3",significant Six2 and Osr1 re-induction
same,Six2 gene levels upon culture passage,"[3]; constant VPA exposure, P1-P3",significant Six2 and Osr1 re-induction
same,Six2 gene levels,"[3]; constant VPA exposure, P3 cells",even further up-regulated
same,cell morphology,[3]; constant VPA exposure,epithelial-like cell morphology
same,Osr1 gene levels,[3]; [9],remained similar to controls
same,Six2 gene levels,[3]; [9],remained similar to controls
same,cell morphology,[3]; transient 24-hour VPA exposure,fibroblastic morphology
